Measured values taken from ChEMBL document CHEMBL1201862, “PubChem BioAssay data set” (2004).
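Briefly, cells in 96-well plates were exposed to five compound concentrations for 48 h, and endpoints were estimated by linear interpolation. GI50 = concentration required for 50% inhibition of growth.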 Calls of active or inactive are those of the source. No stated cut-off is given here; in the data, active = GI50 up to about 1.1 µM and inactive = higher.

Legend:
Test in all cases: DTP human tumour cell line panel, 48 h
ACHN = test system: ACHN
MDA-N = test system: MDA-N
SK-MEL-28 = test system: SK-MEL-28
Hs-578T = test system: Hs-578T
EKVX = test system: EKVX
NCI-H226 = test system: NCI-H226
A498 = test system: A498
MDA-MB-435 = test system: MDA-MB-435
HCT-116 = test system: HCT-116
CAKI-1 = test system: CAKI-1
HL-60 = test system: HL-60
OVCAR-8 = test system: OVCAR-8
COLO 205 = test system: COLO 205
T47D = test system: T47D
KM12 = test system: KM12
HT-29 = test system: HT-29
RXF 393 = test system: RXF 393
OVCAR-4 = test system: OVCAR-4
SF-268 = test system: SF-268

Measured: GI50

CC(=O)Nc1sc([N+](=O)[O-])cc1S(=O)(=O)c1ccc(Cl)cc1
inactive: ACHN 2.36 µM | MDA-N 3.92 µM | SK-MEL-28 11 µM | Hs-578T 3.56 µM | EKVX 3.59 µM | NCI-H226 3.96 µM | A498 3.17 µM | MDA-MB-435 3.3 µM | HCT-116 2.99 µM | CAKI-1 3.31 µM | HL-60 1.92 µM | OVCAR-8 3.78 µM | COLO 205 1.29 µM | T47D 2.04 µM | KM12 2.99 µM | HT-29 3.13 µM | RXF 393 2.64 µM | OVCAR-4 1.86 µM | SF-268 4.35 µM

c1ccc(C2=NC3OC2c2ccccc23)cc1 (stereo unspecified)
inactive: ACHN > 10 µM | MDA-N > 10 µM | SK-MEL-28 > 10 µM | Hs-578T > 10 µM | EKVX > 10 µM | NCI-H226 > 10 µM | A498 > 10 µM | MDA-MB-435 > 10 µM | HCT-116 > 10 µM | CAKI-1 > 10 µM | HL-60 > 10 µM | OVCAR-8 > 10 µM | COLO 205 > 10 µM | T47D > 10 µM | KM12 > 10 µM | HT-29 > 10 µM | RXF 393 > 10 µM | OVCAR-4 > 10 µM | SF-268 > 10 µM

Nc1cc(-c2ccc(Cl)cc2)nn1-c1nc2ccccc2nc1-c1ccccc1
inactive: ACHN 70.6 µM | MDA-N > 100 µM | SK-MEL-28 79.4 µM | Hs-578T 70.5 µM | EKVX > 100 µM | NCI-H226 > 100 µM | A498 > 100 µM | MDA-MB-435 > 100 µM | HCT-116 > 100 µM | CAKI-1 > 100 µM | HL-60 > 100 µM | OVCAR-8 > 100 µM | COLO 205 > 100 µM | T47D 13.3 µM | KM12 > 100 µM | HT-29 11.9 µM | RXF 393 35 µM | OVCAR-4 56.8 µM | SF-268 > 100 µM

Nc1ccc(C(=O)N2CCC[C@H]2CO)c(N)c1
inactive: ACHN > 100 µM | MDA-N > 100 µM | SK-MEL-28 > 100 µM | Hs-578T > 100 µM | EKVX > 100 µM | NCI-H226 > 100 µM | A498 > 100 µM | MDA-MB-435 > 100 µM | HCT-116 > 100 µM | CAKI-1 > 100 µM | HL-60 > 100 µM | OVCAR-8 > 100 µM | COLO 205 > 100 µM | T47D > 100 µM | KM12 > 100 µM | HT-29 > 100 µM | RXF 393 > 100 µM | OVCAR-4 > 100 µM | SF-268 > 100 µM

COC(=O)CC1(O)C=CC(=O)C=C1 [JACARANONE]
inactive: ACHN 2.99 µM | MDA-N 6.35 µM | SK-MEL-28 2.38 µM | Hs-578T 8.55 µM | EKVX 4.02 µM | NCI-H226 8.61 µM | A498 7.16 µM | MDA-MB-435 6.47 µM | HCT-116 9.77 µM | CAKI-1 3.83 µM | HL-60 2.59 µM | OVCAR-8 3.4 µM | COLO 205 4.68 µM | T47D 5.42 µM | KM12 1.74 µM | HT-29 6.24 µM | RXF 393 3.36 µM | OVCAR-4 3.82 µM | SF-268 3.18 µM

Cc1ccc(S(=O)(=O)N2C[C@](O)(c3ccccc3)[C@H]2C)cc1
inactive: ACHN > 100 µM | MDA-N > 100 µM | SK-MEL-28 > 100 µM | Hs-578T > 100 µM | EKVX > 100 µM | NCI-H226 > 100 µM | A498 > 100 µM | MDA-MB-435 > 100 µM | HCT-116 > 100 µM | CAKI-1 > 100 µM | HL-60 72.8 µM | OVCAR-8 > 100 µM | COLO 205 > 100 µM | T47D 47.9 µM | KM12 > 100 µM | HT-29 > 100 µM | RXF 393 > 100 µM | OVCAR-4 > 100 µM | SF-268 > 100 µM

O=[N+]([O-])c1ccc2c(c1)Cc1cc(/N=C/c3ccc4c(c3)OCO4)ccc1-2
inactive: ACHN > 100 µM | MDA-N > 100 µM | SK-MEL-28 > 100 µM | Hs-578T 80 µM | EKVX 57.1 µM | NCI-H226 > 100 µM | A498 > 100 µM | MDA-MB-435 > 100 µM | HCT-116 > 100 µM | CAKI-1 > 100 µM | HL-60 > 100 µM | OVCAR-8 > 100 µM | COLO 205 > 100 µM | T47D > 100 µM | KM12 > 100 µM | HT-29 > 100 µM | RXF 393 > 100 µM | OVCAR-4 > 100 µM | SF-268 > 100 µM

Cc1c2ccncc2c(C)c2c1sc1ccccc12
inactive: ACHN 3.85 µM | MDA-N 13.1 µM | SK-MEL-28 13.3 µM | Hs-578T 13.6 µM | EKVX 4.75 µM | NCI-H226 8.13 µM | A498 8.47 µM | MDA-MB-435 15 µM | HCT-116 4.49 µM | CAKI-1 7.45 µM | HL-60 2.9 µM | OVCAR-8 8.22 µM | COLO 205 12.3 µM | T47D 13.1 µM | KM12 12.1 µM | HT-29 6.1 µM | RXF 393 10 µM | OVCAR-4 14.3 µM | SF-268 11.3 µM

COC(=O)N/N=C(\c1ccccc1)c1ccc(OC)cc1
inactive: MDA-N > 100 µM | SK-MEL-28 > 100 µM | Hs-578T > 100 µM | EKVX > 100 µM | NCI-H226 > 100 µM | A498 > 100 µM | MDA-MB-435 76.7 µM | HCT-116 > 100 µM | CAKI-1 > 100 µM | HL-60 > 100 µM | OVCAR-8 > 100 µM | COLO 205 > 100 µM | T47D > 100 µM | KM12 > 100 µM | HT-29 > 100 µM | RXF 393 > 100 µM | OVCAR-4 > 100 µM | SF-268 > 100 µM

CC1(C)[N+]([O-])=[N+]([O-])C1(C)O (stereo unspecified)
inactive: MDA-N > 100 µM | SK-MEL-28 > 100 µM | Hs-578T > 100 µM | EKVX > 100 µM | NCI-H226 > 100 µM | A498 > 100 µM | MDA-MB-435 > 100 µM | HCT-116 > 100 µM | CAKI-1 > 100 µM | HL-60 > 100 µM | OVCAR-8 > 100 µM | COLO 205 > 100 µM | T47D > 100 µM | KM12 > 100 µM | HT-29 > 100 µM | RXF 393 > 100 µM | OVCAR-4 > 100 µM | SF-268 > 100 µM

COC(=O)c1cccc(C)c1C1CN=NC12Cc1c(ccc(C)c1C)C2=O (stereo unspecified)
inactive: ACHN 34.4 µM | MDA-N 33.1 µM | SK-MEL-28 50 µM | Hs-578T 27.4 µM | EKVX 7.14 µM | NCI-H226 81.8 µM | A498 58.1 µM | MDA-MB-435 35.2 µM | HCT-116 22.5 µM | CAKI-1 91.2 µM | HL-60 12.6 µM | OVCAR-8 30.7 µM | T47D 5.4 µM | KM12 23.3 µM | HT-29 25.8 µM | RXF 393 19.2 µM | OVCAR-4 56.9 µM | SF-268 61.8 µM
